Test system: APTK-s.c. tumors
Experiment: Oral UA in mice with established s.c. APTK tumors
Format: in vivo, C57BL/6 mice
From the text: Oral UA confers anti-tumor effects in murine colorectal cancer in a T-cell dependent manner. (FIG. 1A) Schematic representation of AOM model and different UA containing diets. (FIG. 1B) Representative images of swiss-roll sections from AOM-induced colon tumors. Scale bars are 2 mm (upper row) and 300 µm (lower row), respectively. (FIG. 1C) Tumor incidence of AOM-induced tumors receiving different UA-containing diets; n=4/5/5. Data are mean ±SD, depicting one of two independent experiments. *p < 0.05 by two-sided t-test. (FIG. 1D) Average lesion size of AOM-induced tumors receiving different UA-containing diets; n=4/5/5. Data are mean ±SD, depicting one of two independent experiments. *p < 0.05 by two-sided t-test. (FIG. 1E) Relative number of CD45^+CD3^+ T cells in colons of AOM-treated mice at week 24 (n>7, pooled from two independent experiments). Data are mean ± SD, **p < 0.01 by two-sided t-test. (FIG. 1F) Organoid treatment scheme. APTK-organoids were incubated in the presence of UA or DMSO for the indicated time points, prior to flow cytometric analysis. (FIG. 1G) Quantification of lysosome formation as assessed by lysotracker MFI via flow cytometry after 24 h incubation at the presence of various UA concentrations (n=5/4/4). Depicts one out of two indepdent experiments. Data are mean ± SD, *p < 0.05; **p < 0.01 as established via two-sided t-test. (FIG. 1H) Mitotracker signal of APTK organoids incubated for 24 h at the presence of UA in vitro (n=4/4/4) and antigen presentation via MHC-I molecules (I) after 48 h of treatment (n=4/4/4). Results from one out of two independent experiments are shown. Data are mean ± SD, statistical analysis was performed via two-sided t-test, *p < 0.05; **p < 0.01, ****p < 0.0001. (FIG. 1I) Upregulation of MHC-I by UA. (FIG. 1J) Experimental setup of oral UA administration in mice with established APTK-s.c. tumors. Treatment diet was initiated eleven days after tumor injection and maintained until the end of the experiment. (FIG. 1K) Growth curve of mice subcutaneously transplanted with APTK tumors, receiving either UA-containing or control food (n=7 per group). Data are mean ± SD, ***p <0.001 by two-sided t-test. One out of two independent experiments are shown. (FIG. 1L) End point tumor weight, (FIG. 1M) CD8+ T cell infiltration in APTK-s.c. tumors assessed by flow cytometry, normalising total number of CD8^+ T cells to tumor weight (n=7 per group). Data are mean ± SD, statistical analysis was performed via Mann-Whitney test, *p < 0.05 and ***p <0.001. (FIG. 1N) Size of subcutaneous APTK tumors in Rag1^-/- mice receiving UA-containing or control food (n=7 per group). Treatment was initiated as depicted in FIG. 1J. Data are mean +-SD, depicting one out of two independent experiments. […]

O=c1oc2cc(O)ccc2c2ccc(O)cc12 [Urolithin A]
tumor growth (CD8+ T cell depleting antibodies, UA-containing or control food): exacerbated tumor growth in both control and UA-fed cohorts | tumor growth (UA-containing food plus a-PD1): sensitized APTK tumors to PD-1 blockade | CD8+ T cell infiltration (high-dose UA diet (2.28 g/kg)): enhanced CD8^+ T cell infiltration | tumor growth (high-dose UA diet (2.28 g/kg), started eleven days after tumor injection): significantly reduced tumor growth
